# Results published in patent publication US8114381B2, “Radiolabeled compounds and compositions, their precursors and methods for their production” (The University of British Columbia, priority 2004, dated 2012).
# Legend:
# Format in all cases: physicochemical
# [1] = Spectroscopic study of protecting group hydrolysis rate; conditions: 200 mM Acetic acid at pH 3.5, 2 mM boron compound, 20 mM KHF2
# Experimental: Prior to ^18F-labeling of the final DNA compound or other boron-based fluoride acceptors, dilute labeling conditions were developed for 4-(4,4,5,5-Tetramethyl-1,3,2-dioxaborolan-2-yl) aniline with cold ^19F and the expectation that these labeling conditions can be extrapolated onto ^18F studies. The general conditions established are as follows: 200 mM Acetic acid at pH 3.5, with 2 mM boron compound, and 20 mM KHF2.
# [2] = Kinetics of fluorination of boron compound with KHF2; conditions: 100 mM Acetic acid at pH 3.5
# From the text: Prior to ^18F-labeling of the final DNA compound or other boron-based fluoride acceptors, dilute labeling conditions were developed for 4-(4,4,5,5-Tetramethyl-1,3,2-dioxaborolan-2-yl) aniline with cold ^19F and the expectation that these labeling conditions can be extrapolated onto ^18F studies. […]
# [3] = 19F NMR stability of B-F bond with 20 mM boric acid chase or in presence of boric acid; conditions: 20 mM boric acid chase (chase at 1 h, NMR at 2 h) or fluorination in presence of 20 mM boric acid
# Experimental: Fluorination after a 20 mM boric acid chase (chase at 1 h, NMR taken at 2 h): ^19F NMR (300 MHz, D2O, TFA ref) δ −50.23 (fluorine-boric acid species #1), δ−53.89 (KHF2), δ −62.3 (fluorine-boric acid species #2), δ −66.30 (s, φBF3). Fluorination in the presence of boric acid: ^19F NMR (300 MHz, D2O, TFA ref) δ −50.02 (fluorine-boric acid species #1), δ −52.47 (KHF2), δ −62.0 (fluorine-boric acid species #2), δ −65.65 (s, φBF3).
stability of B—F bond (persistence of 19F NMR peak near δ −66) [3],Structure (SMILES),protecting group hydrolysis rate [1] [min⁻¹],rate of fluorination [2] [min⁻¹]
,"CC1(C)OB(c2ccc(N)cc2)OC1(C)C [4-(4,4,5,5-Tetramethyl-1,3,2-dioxaborolan-2-yl) aniline]",0.66 ± 0.04,2.8 ± 0.3
stable,"[NH3+]c1ccc([B-](F)(F)F)cc1 [φBF3, 4-Ammoniumphenyl Trifluoroborate]",,
